# Experimental data as given in patent publication US20260355192A1, “PROPHYLACTIC OR THERAPEUTIC AGENT FOR PERIOSTIN-MEDIATED DISEASE AND PRURITUS ASSOCIATED THEREWITH” (SAGA UNIVERSITY, priority 2022, published 2026).
# Columns and labels:
# [1] = tested on: scratching behaviors in FADS mice; experiment: Scratching behaviors in FADS mice upon single systemic administration of CP4715; format: in vivo, mouse (FADS, Nestin-cre/Ikk2ff); conditions: 53.7 μmol/kg i.p., FIG. 2
# Excerpt: Nestin-cre transgenic mice were crossed with IKK2^ff mice to prepare Nestin-cre/Ikk2^ff mice specifically lacking IKK2 in their facial skin fibroblasts (Nunomura S, et al. J Invest Dermatol. 139:1274-1283, 2019). These mice inevitably develop atopic dermatitis-like rash limited to the face and intense itchy symptoms, and were therefore designated as Facial Atopic Dermatitis with Scratching (FADS) mice. […] For evaluation of the prophylactic or therapeutic agent of the present invention, FADS mice at 3 to 4 weeks of age or older were used because of showing spontaneous scratching behaviors. […]
# (§1) FADS mice were acclimated for 20 minutes to the environment of a recording cage, and then recorded with a video camera. The recorded videos were replayed, and scratching behaviors were counted assuming that hind paw scratching to the face and the subsequent movement of toe licking or paw lowering to the ground were regarded as one cycle of scratching behavior.
# Prior to CP4715 administration, FADS mice were recorded for 60 minutes and then allowed to rest for 30 minutes. […] Mice administered with 0.3 mL of PBS containing an equal amount of the diluent as calculated based on the body weight were used as a control group.
# The mice were recorded for 80 minutes immediately after drug administration. […]
# [2] = tested on: scratching behaviors in FADS mice; experiment: Scratching behaviors in FADS mice upon repeated systemic administration of CP4715; format: in vivo, mouse (FADS, Nestin-cre/Ikk2ff); conditions: at 1 week and 2 weeks after administration; 107.4 μmol/kg twice a day under the dorsal skin; Mann-Whitney's U-test vs diluent control; FIG. 1
# Excerpt: (§2) Nestin-cre transgenic mice were crossed with IKK2^ff mice to prepare Nestin-cre/Ikk2^ff mice specifically lacking IKK2 in their facial skin fibroblasts (Nunomura S, et al. J Invest Dermatol. 139:1274-1283, 2019). These mice inevitably develop atopic dermatitis-like rash limited to the face and intense itchy symptoms, and were therefore designated as Facial Atopic Dermatitis with Scratching (FADS) mice. […] For evaluation of the prophylactic or therapeutic agent of the present invention, FADS mice at 3 to 4 weeks of age or older were used because of showing spontaneous scratching behaviors. It should be noted that in this Example section, the above compound of formula (I) (more particularly “CP4715”) was used as the prophylactic or therapeutic agent of the present invention.
# as §1, with “behavior. […]” for “behavior.”
# At 1 week and 2 weeks after drug administration, the mice were recorded for 60 minutes and analyzed to calculate the number of scratchings per minute for evaluation. […]
# [3] = tested on: glycoprotein (GP) IIb/IIIa receptor; conditions: cited from earlier work
# [4] = tested on: scratching behaviors in FADS mice; experiment: Scratching behaviors in FADS mice upon repeated percutaneous administration of CP4715; format: in vivo, mouse (FADS, Nestin-cre/Ikk2ff); conditions: 30 μL of 26.85 mM solution externally applied once a day for 28 days to facial rash lesions; FIG. 7
# Excerpt: as §2, §1
# CP4715 was dissolved in a diluent (5% DMSO/15% N-methyl-2-pyrrolidone/80% ethanol) to prepare a 26.85 mM solution. […] Before administration and on Days 3, 7, 14, 21 and 28 of administration, the number of scratchings during 60 minutes was counted for evaluation.
# αvβ3 integrin = conditions: cited from earlier work
# integrin αvβ3 = biological target: T1, integrin αvβ3 (Homo sapiens, UniProt P05106+P06756); experiment: Inhibition of periostin-dependent adhesion of SW480 cells expressing integrin αvβ3; format: cell-based; conditions: immobilized recombinant human periostin, FIG. 6
# T1 construct: SW480 cells, a human colon cancer cell line not expressing integrin β3; expressed in transfected cells; host or cells: SW480 cells (human colon cancer) stably expressing human integrin β3
# Protocol: For use in cell adhesion experiments, SW480 cells, a human colon cancer cell line not expressing integrin β3, were genetically engineered to stably express human integrin β3 (Nanri Y, et al. Am J Respir Cell Mol Biol. 62:204-216, 2020). The compounds shown in Table 1 were examined for their inhibitory activity against adhesion between integrin αvβ3 and periostin according to the following procedures. First, a 96-well plate was treated with 10 μg/mL recombinant human periostin (Bio-Techne) at 4 °C for 16 hours to immobilize periostin. The SW480 cells expressing integrin αvβ3 (5×10^4 cells) were reacted at room temperature for 15 minutes with the above compounds at 0.001, 0.01, 0.1 and 1 μM in serum-free DMEM (Dulbecco's Modified Eagle Medium) containing 0.5% bovine serum albumin and 0.25 mM MnCl2. A group receiving no compound was used as a control. The reacted cell suspensions were added to separate wells of the above human periostin-immobilized plate, and the plate was centrifuged at 10×g for 5 minutes and then cultured at 37 °C for 60 minutes. Then, after the adhered cells were washed to remove unbound cells, the adhered cells were fixed with 1% formaldehyde and stained with 0.5% crystal violet. The fixed and stained cells were solubilized with 0.2% Triton X-100 and measured for absorbance at 595 nm. The absorbance of the control (i.e., the group receiving no compound) was set to 0% inhibition. […] Cell adhesion in this test system is periostin-dependent, and a compound inhibiting this cell adhesion can be referred to as a periostin receptor antagonist.
# T1 sequence (P06756 31-889 limits assumed): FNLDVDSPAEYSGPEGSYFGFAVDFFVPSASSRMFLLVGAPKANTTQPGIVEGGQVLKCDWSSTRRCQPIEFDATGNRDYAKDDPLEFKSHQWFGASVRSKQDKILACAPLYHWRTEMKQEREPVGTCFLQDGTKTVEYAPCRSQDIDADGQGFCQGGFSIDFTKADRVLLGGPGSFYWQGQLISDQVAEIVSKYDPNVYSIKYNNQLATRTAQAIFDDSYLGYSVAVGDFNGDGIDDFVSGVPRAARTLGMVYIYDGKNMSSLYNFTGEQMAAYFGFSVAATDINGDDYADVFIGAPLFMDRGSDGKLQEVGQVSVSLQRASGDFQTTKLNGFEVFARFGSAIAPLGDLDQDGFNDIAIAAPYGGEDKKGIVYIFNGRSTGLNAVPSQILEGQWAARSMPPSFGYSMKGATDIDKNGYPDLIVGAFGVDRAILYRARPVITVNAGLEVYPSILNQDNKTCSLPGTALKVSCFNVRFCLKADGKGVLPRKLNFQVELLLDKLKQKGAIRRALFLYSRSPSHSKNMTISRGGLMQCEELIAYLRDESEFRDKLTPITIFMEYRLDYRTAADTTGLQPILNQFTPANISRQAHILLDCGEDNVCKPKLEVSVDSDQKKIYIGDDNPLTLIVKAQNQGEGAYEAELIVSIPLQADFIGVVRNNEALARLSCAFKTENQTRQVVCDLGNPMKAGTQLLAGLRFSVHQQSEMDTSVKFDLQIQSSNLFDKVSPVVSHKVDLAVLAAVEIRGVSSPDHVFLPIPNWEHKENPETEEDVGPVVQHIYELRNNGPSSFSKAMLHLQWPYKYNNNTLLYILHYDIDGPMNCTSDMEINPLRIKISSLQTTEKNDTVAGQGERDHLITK
# T1 sequence (P06756 891-1048 partner limits assumed): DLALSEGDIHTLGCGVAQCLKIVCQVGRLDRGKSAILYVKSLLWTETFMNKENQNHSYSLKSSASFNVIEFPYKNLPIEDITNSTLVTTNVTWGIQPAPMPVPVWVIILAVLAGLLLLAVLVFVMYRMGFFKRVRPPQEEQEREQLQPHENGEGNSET
# T1 sequence (P05106 27-788): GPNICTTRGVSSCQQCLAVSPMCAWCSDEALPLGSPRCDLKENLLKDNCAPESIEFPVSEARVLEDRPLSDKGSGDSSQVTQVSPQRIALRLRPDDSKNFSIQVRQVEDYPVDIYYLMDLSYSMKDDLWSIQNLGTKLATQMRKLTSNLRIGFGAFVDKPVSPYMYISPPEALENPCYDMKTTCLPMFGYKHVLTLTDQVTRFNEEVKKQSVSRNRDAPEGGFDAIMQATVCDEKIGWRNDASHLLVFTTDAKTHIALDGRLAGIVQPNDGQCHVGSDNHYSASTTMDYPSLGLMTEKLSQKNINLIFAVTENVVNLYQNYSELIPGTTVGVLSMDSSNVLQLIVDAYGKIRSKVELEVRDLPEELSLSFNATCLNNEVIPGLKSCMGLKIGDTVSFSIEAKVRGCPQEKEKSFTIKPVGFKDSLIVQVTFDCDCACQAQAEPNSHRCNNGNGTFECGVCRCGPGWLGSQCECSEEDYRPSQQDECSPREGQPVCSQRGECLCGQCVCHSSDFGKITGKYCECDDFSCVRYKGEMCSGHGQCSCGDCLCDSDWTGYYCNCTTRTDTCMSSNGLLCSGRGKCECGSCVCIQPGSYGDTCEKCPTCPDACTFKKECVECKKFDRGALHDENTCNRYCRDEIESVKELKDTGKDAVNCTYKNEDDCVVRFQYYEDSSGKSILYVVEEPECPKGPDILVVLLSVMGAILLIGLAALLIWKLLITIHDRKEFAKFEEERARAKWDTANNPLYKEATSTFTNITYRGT
structure (smiles),measurement,setting,value
"COc1cc(C(=O)NC[C@H](NS(=O)(=O)c2ccccc2)C(=O)O)ccc1N1CCC(NC2=NCCCN2)CC1 [CP4715, (S)-3-(3-methoxy-4-(4-((1,4,5,6-tetrahydropyrimidin-2-yl)amino)piperidin-1-yl)benzamido)-2-(phenylsulfonamido)propanoic acid]",time after administration until which the suppressive effect on scratching was sustained,[1],60 min
same,scratching behaviors (number of scratchings per minute),"[1]; at 20 minutes or later after administration, Mann-Whitney's U-test vs diluent control",significantly suppressed (P<0.05)
same,scratching behaviors (number of scratchings per minute),[2],significantly suppressed (P<0.05)
same,antagonistic effect on GP IIb/IIIa receptor,[3],antagonistic effect
same,time-dependent enhancement of scratching behaviors,[4],suppressed
same,antagonistic effect on αvβ3 integrin,αvβ3 integrin,antagonistic effect
same,IC50,"integrin αvβ3; SW480 cells expressing human integrin β3, compounds at 0.001-1 μM, read-out: 50% inhibition concentration (IC50 value) for cell adhesion inhibitory activity",≤ 1 nM
same,cell adhesion inhibitory effect (in words),integrin αvβ3; SW480 cells expressing integrin αvβ3,high
